In US7396834B2, “4(Phenyl-piperazinyl-methyl) benzamide derivatives and their use for the treatment of pain or gastrointestinal disorders” (AstraZeneca AB, priority 2002, dated 2008) one finds EC50, Emax and IC50 data, which are given here for four molecules.

Assay [1] concerns the target T1, δ receptors in rat brain membranes (Rattus norvegicus, UniProt P33533).
T1 construct: membranes from HEK-293S cells expressing the cloned human opioid receptors or from homogenised rat and mouse brain; from tissue; host or cells: rat brain homogenate membranes
Briefly: Rat brain GTPγ35S functional assay. It is filed as biochemical. On the procedure:
Rat brains are weighed and rinsed in ice-cold PBS (containing 2.5 mM EDTA, pH 7.4). The brains are homogenized with a polytron for 30 sec (rat) in ice-cold lysis buffer (50 mM Tris, pH 7.0, 2.5mM EDTA, with phenylmethylsulfonyl fluoride added just prior use to […] from a 0.5M stock in DMSO:ethanol).
The agonist activity of the compounds is measured by determining the degree to which the compounds receptor complex activates the binding of GTP to G-proteins to which the receptors are coupled. In the GTP binding assay, GTP[γ]^35S is combined with test compounds and membranes from HEK-293S cells expressing the cloned human opioid receptors or from homogenised rat and mouse brain. Agonists stimulate GTP[γ]^35S binding in these membranes. The EC50 and Emax values of compounds are determined from dose-response curves. […] For human δ receptor functional assays, EC50 (low) is measured when the human δ receptors used in the assay were expressed at lower levels in comparison with those used in determining EC50 (high). […]
Rat brain membranes are thawed at 37° C., passed 3 times through a 25-gauge blunt-end needle and diluted in the GTPYS binding (50 mM Hepes, 20 mM NaOH, 100 mM NaCl, 1 mM EDTA, 5 mM MgCl2, pH 7.4, Add fresh: 1 mM DTT, 0.1% BSA). […] The basal and maximal stimulated binding are determined in absence and presence of 3 μM SNC-80.

For the next assay, the target named is T2, cloned human μ receptors (Homo sapiens, UniProt P35372).
T2 construct: expressed in transfected cells; host or cells: human HEK-293S cells, grown in suspension under geneticin selection
Briefly: Human μ receptor radioligand binding assay.

Assay [2] deals with T3, cloned human δ receptors (Homo sapiens, UniProt P41143).
T3 construct: expressed in transfected cells; host or cells: human HEK-293S cells, grown in suspension under geneticin selection
As to the kind of experiment: Human δ receptor radioligand binding assay.

The next assay has as its target cloned human κ receptors (Homo sapiens, UniProt P41145). Briefly: Human κ receptor radioligand binding assay. The settings on record: membranes of human 293S cells; Table 1.
For assay [3], the target named is T3, cloned human δ receptors. Briefly: Human δ receptor GTP[γ]35S functional assay (high expression). It is filed as biochemical. The protocol:
(§1) Human 293S cells expressing cloned human κ, δ and μ receptors and neomycin resistance are grown in suspension at 37° C. and 5% CO2 in shaker flasks containing calcium-free DMEM10% FBS, 5% BCS, 0.1% Pluronic F-68, and 600 μg/ml geneticin.
Cells are pelleted and resuspended in lysis buffer (50 mM Tris, pH 7.0, 2.5 mM EDTA, with PMSF added just prior to use to 0.1 mM from a 0.1 M stock in ethanol), incubated on ice for 15 min, then homogenized with a polytron for 30 sec. The suspension is spun at 1000 g (max) for 10 min at 4° C. The supernatant is saved on ice and the pellets resuspended and spun as before. The supernatants from both spins are combined and spun at 46,000 g(max) for 30 min. The pellets are resuspended in cold Tris buffer (50 mM Tris/Cl, pH 7.0) and spun again. […] The protein concentrations are determined by a modified Lowry assay with sodium dodecyl sulfate.
The agonist activity of the compounds is measured by determining the degree to which the compounds receptor complex activates the binding of GTP to G-proteins to which the receptors are coupled. […] The EC50 and Emax values of compounds are determined from dose-response curves. […] For human δ receptor functional assays, EC50 (low) is measured when the human δ receptors used in the assay were expressed at lower levels in comparison with those used in determining EC50 (high). […]

Assay [4] concerns the target T3, cloned human δ receptors. Briefly: Human δ receptor GTP[γ]35S functional assay (low expression). The settings on record: for Emax: relative to SNC80, lower expression level, range over the listed compounds. It is filed as biochemical. On the procedure:
as §1
Cells are pelleted and resuspended in lysis buffer (50 mM Tris, pH 7.0, 2.5 mM EDTA, with PMSF added just prior to use to 0.1 mM from a 0.1 M stock in ethanol), incubated on ice for 15 min, then homogenized with a polytron for 30 sec. The suspension is spun at 1000 g (max) for 10 min at 4° C. The supernatant is saved on ice and the pellets resuspended and spun as before. The supernatants from both spins are combined and spun at 46,000 g(max) for 30 min. The pellets are resuspended in cold Tris buffer (50 mM Tris/Cl, pH 7.0) and spun again. The final pellets are resuspended in membrane buffer (50 mM Tris, 0.32 M sucrose, pH 7.0). Aliquots (1 ml) in polypropylene tubes are frozen in dry ice/ethanol and stored at −70° C. until use. The protein concentrations are determined by a modified Lowry assay with sodium dodecyl sulfate.
The agonist activity of the compounds is measured by determining the degree to which the compounds receptor complex activates the binding of GTP to G-proteins to which the receptors are coupled. In the GTP binding assay, GTP[γ]^35S is combined with test compounds and membranes from HEK-293S cells expressing the cloned human opioid receptors or from homogenised rat and mouse brain. Agonists stimulate GTP[γ]^35S binding in these membranes. The EC50 and Emax values of compounds are determined from dose-response curves. Right shifts of the dose response curve by the delta antagonist naltrindole are performed to verify that agonist activity is mediated through delta receptors. For human δ receptor functional assays, EC50 (low) is measured when the human δ receptors used in the assay were expressed at lower levels in comparison with those used in determining EC50 (high). The Emax values were determined in relation to the standard δ agonist SNC80, i.e., higher than 100% is a compound that have better efficacy than SNC80.

The mark [5] stands for this setting: Human μ IC50, Table 2, range over the listed compounds.
The mark [6] stands for this setting: Human δ IC50, Table 2, range over the listed compounds.

Structures are written as SMILES.

T2 sequence (P35372 whole entry): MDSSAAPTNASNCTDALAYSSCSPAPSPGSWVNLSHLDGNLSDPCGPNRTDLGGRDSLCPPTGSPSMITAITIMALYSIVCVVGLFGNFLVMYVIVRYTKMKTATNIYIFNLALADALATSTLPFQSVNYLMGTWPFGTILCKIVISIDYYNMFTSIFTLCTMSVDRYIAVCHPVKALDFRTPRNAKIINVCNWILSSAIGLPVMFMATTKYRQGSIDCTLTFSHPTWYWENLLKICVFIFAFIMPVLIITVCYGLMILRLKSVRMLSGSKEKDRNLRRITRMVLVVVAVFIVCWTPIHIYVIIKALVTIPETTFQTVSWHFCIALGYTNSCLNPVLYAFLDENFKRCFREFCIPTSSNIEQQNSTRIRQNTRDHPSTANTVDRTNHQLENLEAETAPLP
T3 sequence (P41143 whole entry): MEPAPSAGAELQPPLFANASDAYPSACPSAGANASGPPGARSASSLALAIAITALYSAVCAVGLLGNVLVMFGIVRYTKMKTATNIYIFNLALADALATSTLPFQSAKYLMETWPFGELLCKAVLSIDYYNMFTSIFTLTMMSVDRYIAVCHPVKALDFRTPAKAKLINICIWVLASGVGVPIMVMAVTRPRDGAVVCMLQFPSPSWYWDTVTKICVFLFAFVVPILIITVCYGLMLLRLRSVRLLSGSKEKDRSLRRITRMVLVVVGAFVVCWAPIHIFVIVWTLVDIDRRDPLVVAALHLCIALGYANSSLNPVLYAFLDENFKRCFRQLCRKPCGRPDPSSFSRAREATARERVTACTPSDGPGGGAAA
T1 sequence (P33533 whole entry): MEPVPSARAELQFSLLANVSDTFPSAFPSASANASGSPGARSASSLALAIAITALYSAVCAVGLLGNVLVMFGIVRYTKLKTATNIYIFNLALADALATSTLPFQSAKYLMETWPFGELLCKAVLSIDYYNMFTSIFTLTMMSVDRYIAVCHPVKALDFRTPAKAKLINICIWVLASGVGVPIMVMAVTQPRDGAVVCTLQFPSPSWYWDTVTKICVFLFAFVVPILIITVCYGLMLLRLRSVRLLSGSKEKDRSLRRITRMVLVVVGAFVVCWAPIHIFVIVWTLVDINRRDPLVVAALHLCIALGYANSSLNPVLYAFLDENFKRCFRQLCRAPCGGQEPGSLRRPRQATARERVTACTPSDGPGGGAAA
cloned human κ receptors, sequence (P41145 whole entry): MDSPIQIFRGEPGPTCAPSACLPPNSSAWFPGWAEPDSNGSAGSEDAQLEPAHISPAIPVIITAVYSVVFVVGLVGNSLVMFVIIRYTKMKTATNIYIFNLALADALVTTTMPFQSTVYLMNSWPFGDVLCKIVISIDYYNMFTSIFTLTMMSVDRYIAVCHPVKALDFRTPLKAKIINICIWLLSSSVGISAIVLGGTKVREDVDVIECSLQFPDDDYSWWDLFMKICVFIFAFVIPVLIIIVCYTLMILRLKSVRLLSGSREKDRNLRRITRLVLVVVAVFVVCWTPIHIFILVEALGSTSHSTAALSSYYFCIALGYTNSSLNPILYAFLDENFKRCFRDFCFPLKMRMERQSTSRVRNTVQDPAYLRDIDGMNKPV

For `CCN(CC)C(=O)c1ccc(C(c2cccc(C(N)=O)c2)N2CCN(Cc3ccccc3)CC2)cc1` (single isomer, unassigned) [Compound 1a, 3-[(4-[(diethylamino)carbonyl]phenyl)(4-benzyl-piperazin-1-yl)methyl]benzamide], the EC50 – broadly, the midpoint of the concentration-response curve – is 0.2 nM in assay [1] and 0.29 nM at cloned human δ receptors [3]. For the same molecule, the Emax (as a rule, the greatest response seen or fitted, relative to the assay's reference) in assay [1] (relative to SNC80, rat brain membranes) worked out at 170%; on cloned human δ receptors [3] (relative to standard δ agonist SNC80, higher expression level), 101%. Also, the IC50 (as a rule, the concentration that gives 50% inhibition) on cloned human μ receptors (Human μ IC50, membranes of human 293S cells, Table 1) turned out to be 7.7 nM; at cloned human δ receptors [2] (Human δ IC50, membranes of human 293S cells, displacement of radioligand, Table 1), 0.26 nM; on cloned human κ receptors it was 112 nM.
The molecule `CCN(CC)C(=O)c1ccc(C(c2cccc(C(N)=O)c2)N2CCN(Cc3ccccc3)CC2)cc1` (single isomer, unassigned) [Compound 1b, 3-[(4-[(diethylamino)carbonyl]phenyl)(4-benzyl-piperazin-1-yl)methyl]benzamide] registered a 50% effective concentration (EC50) at cloned human δ receptors [4] of 0.5 to 83 nM. Further, on cloned human δ receptors [4], the maximal response (Emax) was in the range of 91 to 104%. Besides, the IC50 at cloned human μ receptors (setting [5]) was in the range of 45 to 1720 nM; on cloned human δ receptors [2] (setting [6]) it was 0.14 to 3.73 nM.
At cloned human δ receptors [4], `CCN(CC)C(=O)c1ccc(C(c2cccc(C(N)=O)c2)N2CCN(Cc3ccco3)CC2)cc1` (single isomer, unassigned) [Compound 2a, 3-{(4-[(diethylamino)carbonyl]phenyl)[4-(2-furylmethyl)-piperazin-1-yl]methyl}benzamide] displayed an EC50 of 0.5 to 83 nM and an Emax of 91 to 104%. The IC50 on cloned human μ receptors (setting [5]) was in the range of 45 to 1720 nM. Besides, the 50% inhibitory concentration (IC50) on cloned human δ receptors [2] (setting [6]) fell in the range of 0.14 to 3.73 nM.
At cloned human δ receptors [4], `CCN(CC)C(=O)c1ccc(C(c2cccc(C(=O)NC)c2)N2CCN(Cc3ccccc3)CC2)cc1` (single isomer, unassigned) [Compound 3a, 3-[[4-[(diethylamino)carbonyl]phenyl][4-(phenylmethyl)-1-piperazinyl]methyl]-N-methyl-benzamide] gave an EC50 of 0.5 to 83 nM and a maximal response (Emax) of 91 to 104%. On cloned human μ receptors (setting [5]), this molecule registered an IC50 of 45 to 1720 nM. Further, the IC50 at cloned human δ receptors [2] (setting [6]) fell in the range of 0.14 to 3.73 nM.
